{"source": "patent US20260217652A1", "about": "“PHENYL-SUBSTITUTED HETEROARYL COMPOUND AND PHARMACEUTICAL COMPOSITION COMPRISING SAME, PREPARATION METHOD THEREFOR AND USE THEREOF” (SHANGHAI MEIYUE BIOTECH DEVELOPMENT CO., LTD., priority 2023, published 2026)", "key": {"[1]": {"assay": "In vitro liver microsome stability, mouse", "type": "in vitro ADME", "conditions": "liver microsomes, 0.5 mg/mL microsomes, 1 μM compound, NADPH, 37° C., read-out: Mouse liver microsomes Half-life T1/2", "procedure": "(§1) The reference compound used in this experiment was Ketanserin, and the final concentration of microsomes in the experimental system was 0.5 mg/mL. The PBS buffer was a 50 mM K2HPO4 buffer. The concentration of the test compound was 1 μM. The microsomes were added to PBS, and the control/test compounds were respectively added to the corresponding reaction systems, mixed thoroughly, and pre-incubated in a 37° C. water bath for 5 minutes. The reaction was initiated by adding 20 mM NADPH solution under 37° C. water bath conditions (for the No NADPH samples, an equal volume of PBS solution was used as a substitute for the 20 mM NADPH solution). At the reaction time points of 0 min, 10 min, 30 mun, 60 min, and 90 min, 30 μL of reaction samples were taken from each reaction system (for the No NADPH samples, sampling was performed at 0 min and 90 min), and the reaction was immediately terminated by adding 300 μL of the internal standard acetonitrile solution. After centrifugation at 4000 rpm, the supernatant was taken and mixed thoroughly with an equal volume of pure water. The samples at each time point were analyzed by LC-MS/MS (AB Triple Quard 5500) to determine the compound content, and the T1/2 was calculated."}, "[2]": {"target": "T1, p38 MAPK/MK5 (Homo sapiens, UniProt Q16539)", "T1 construct": "purchased Carna (p38α); Abcam (MK5) 04-152; 217826", "T1 sequence (Q16539 whole entry)": "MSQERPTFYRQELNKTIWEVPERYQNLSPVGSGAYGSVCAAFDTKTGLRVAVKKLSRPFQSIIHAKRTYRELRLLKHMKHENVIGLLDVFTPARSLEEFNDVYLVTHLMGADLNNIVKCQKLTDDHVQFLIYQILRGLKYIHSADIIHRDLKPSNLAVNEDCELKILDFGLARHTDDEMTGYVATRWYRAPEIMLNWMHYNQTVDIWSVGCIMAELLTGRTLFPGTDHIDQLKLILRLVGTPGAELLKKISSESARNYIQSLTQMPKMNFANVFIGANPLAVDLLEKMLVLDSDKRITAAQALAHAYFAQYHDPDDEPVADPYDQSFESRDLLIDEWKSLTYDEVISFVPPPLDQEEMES", "assay": "In vitro activity assay of p38 MAPK/MK5 (Z-LYTE kinase assay kit)", "type": "biochemical", "conditions": "active p38α, inactive MK5, Ser/Thr 4; 4-hour reaction at 20° C.", "procedure": "The inhibitory effect of the compound on p38 MAPK/MK5 was evaluated using the Z-LYTE kinase assay kit (Thermo, PV3177). The test compound was dissolved in DMSO to obtain a 10 mM stock solution and stored at −20° C. for future use. The initial concentration of the compound was […], with 1% DMSO, 5-fold serial dilution, 8 concentrations, and duplicate wells. […] After a 4-hour reaction at 20° C., Development Reagent A diluted 2048-fold was added to each well, followed by incubation at room temperature for 1 hour. The reaction was terminated by adding 5 µL of stop buffer, and the plate was read using a microplate reader (Ex. 400 nm, Em. 445 nm; Ex. 400 nm, Em. 520 nm). The concentration-effect curve was fitted using GraphPad Prism 8 software, and the compound concentration resulting in 50% inhibition, IC50, was calculated."}, "[3]": {"assay": "In vitro liver microsome stability, human", "type": "in vitro ADME", "conditions": "liver microsomes, 0.5 mg/mL microsomes, 1 μM compound, NADPH, 37° C., read-out: Human liver microsomes Half-life T1/2", "procedure": "as §1"}, "[4]": {"assay": "Pharmacokinetic evaluation in mice", "type": "in vivo", "conditions": "mouse, plasma; for AUC(0-t): read-out: Area under curve AUC0-24 h; for half-life: read-out: Half-life T1/2 (converted)", "procedure": "The compound was weighed and dissolved in a mixed solvent of DMAC: Solutol: PBS (1:1:8. After intravenous/gastric administration to mice, whole blood ([…]) was collected at 0.083, 0.25, 0.5, 1, 2, 4, 7, and 24 hours. The samples were anticoagulated with EDTA-K2, immediately centrifuged at 4000 rpm for 5 minutes at 4° C., and the supernatant was frozen in a −80° C. refrigerator. Plasma sample processing: The samples were precipitated with an internal standard-containing CH3CN precipitant, followed by centrifugation at 12700 rpm for 10 min. The supernatant was collected and analyzed by LC-MS/MS (AB Triple Quard 5500) to obtain the plasma drug concentration. The parameters were calculated using a non-compartmental model in Winnolin version 8.1."}, "[5]": {"target": "T2, p38 MAPK/MK2 (Homo sapiens, UniProt Q16539)", "T2 construct": "purchased Carna (p38α); Abcam (MK2) 04-152; 79910", "T2 sequence (Q16539 whole entry)": "as above", "T2 sequence (P49137 whole entry partner)": "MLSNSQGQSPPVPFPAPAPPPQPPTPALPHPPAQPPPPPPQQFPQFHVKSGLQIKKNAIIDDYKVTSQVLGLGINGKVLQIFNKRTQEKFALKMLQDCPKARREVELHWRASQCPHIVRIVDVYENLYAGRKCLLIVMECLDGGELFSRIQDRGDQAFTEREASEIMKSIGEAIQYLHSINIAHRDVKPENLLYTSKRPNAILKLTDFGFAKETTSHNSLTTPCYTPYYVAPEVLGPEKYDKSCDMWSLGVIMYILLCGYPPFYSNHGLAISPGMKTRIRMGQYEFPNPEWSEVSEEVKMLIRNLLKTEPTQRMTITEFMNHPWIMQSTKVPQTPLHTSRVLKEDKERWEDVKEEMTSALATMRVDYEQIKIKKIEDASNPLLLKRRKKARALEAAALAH", "assay": "In vitro activity assay of p38 MAPK/MK2 (Z-LYTE kinase assay kit)", "type": "biochemical", "conditions": "active p38α, inactive MK2, Ser/Thr 4; 1-hour reaction at 20° C.", "outline": "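FRET-based Z-LYTE assay; compound tested from […] top concentration, 5-fold serial dilution, 8 points, duplicate wells, 1% DMSO. Kinase reaction 1 h at 20° C, then development reagent 1 h at room temperature; fluorescence read at Ex 400/Em 445 and 520 nm. IC50 from concentration-effect curve fit.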"}, "[6]": {"system": "TNF-α in human PBMC cells", "assay": "In vitro TNF-α activity assay in human PBMC cell supernatant (LPS, ELISA)", "type": "cell-based", "conditions": "Homo sapiens, PBMC, 24 h, LPS 100 ng/mL, read-out: p38 MAPK/TNF-α IC50", "procedure": "The inhibitory effect of the compound on TNF-α in the supernatant of human PBMC cells was evaluated using an ELISA detection kit (Beyotime, PI518). The test compound was dissolved in DMSO to obtain a 10 mM stock solution and stored at −20° C. for future use. The initial concentration of the compound was […], followed by 5-fold serial dilution to obtain 6 concentrations. Cells were plated in duplicate, and ELISA was performed in single wells. The final concentration of DMSO was 0.4%. Alternatively, the initial concentration of the compound, dilution factor, number of concentration gradients, and replicates could be adjusted based on the specific screening conditions.\nFresh human peripheral blood mononuclear cells (PBMCs) (Sailybio) were seeded at a density of 2×10^5 cells per well in a 96-well plate (Corning, 3599), with each well containing 100 μL of RPMI-1640 (Gibco #A1049101)+10% FBS (Gibco, 10099141C), and incubated overnight at 37° C. under 5% CO2. Test compounds were added to the 96-well culture plate at a volume of 25 μL per well. After 1 hour, 5 μL of LPS was added to achieve a final concentration of 100 ng/mL. No LPS and compound were added to the negative control wells, and no compound was added to the positive control wells. The mixture was further incubated for 24 hours at 37° C. under 5% CO2. Subsequently, the cell culture supernatant was collected by centrifugation at 500 rcf for 8 minutes. The concentration of TNF-α was measured according to the operation manual of the ELISA kit. The concentration-effect curve was fitted using GraphPad Prism 8 software, and the compound concentration resulting in 50% inhibition, IC50, was calculated."}, "[7]": {"conditions": "intravenous injection group 1 mg/kg"}, "[8]": {"conditions": "po, intragastric administration group 5 mg/kg"}}, "note": "Like-named read-outs stand apart in the source and are kept apart here.", "data": [{"smiles": "CNC(=O)c1cccc(-c2ncc(C)c(-n3c(C)cc(OCc4ncc(F)cc4F)c(Cl)c3=O)c2F)c1", "note": "[Compound 31-P1]", "values": [{"measurement": "half-life at 1 μM", "setting": "[1]", "result": 1.79, "unit": "h"}, {"measurement": "IC50", "setting": "[2]", "result": 4340, "unit": "nM"}, {"measurement": "half-life at 1 μM", "setting": "[3]", "result": "> 4.66", "unit": "h"}, {"measurement": "AUC(0-t)", "setting": "[4]; [7]", "result": 1360, "unit": "ng·h/mL"}, {"measurement": "clearance", "setting": "[4]; intravenous injection group 1 mg/kg, read-out: Clearance CL (converted)", "result": 12.3, "unit": "mL/min/kg"}, {"measurement": "half-life", "setting": "[4]; [7]", "result": 0.57, "unit": "h"}, {"measurement": "C0", "setting": "[4]; intravenous injection group 1 mg/kg, read-out: Initial concentration C0", "result": 2150, "unit": "ng/mL"}, {"measurement": "Vd", "setting": "[4]; intravenous injection group 1 mg/kg, read-out: Volume of distribution Vd", "result": 0.47, "unit": "L/kg"}, {"measurement": "AUC(0-t)", "setting": "[4]; [8]", "result": 2070, "unit": "ng·h/mL"}, {"measurement": "bioavailability", "setting": "[4]; po, intragastric administration group 5 mg/kg, read-out: Bioavailability F %", "result": 30.5, "unit": "%"}, {"measurement": "half-life", "setting": "[4]; [8]", "result": 3.24, "unit": "h"}, {"measurement": "Cmax", "setting": "[4]; po, intragastric administration group 5 mg/kg, read-out: Maximum concentration Cmax", "result": 979, "unit": "ng/mL"}, {"measurement": "IC50", "setting": "[5]", "result": 2.79, "unit": "nM"}, {"measurement": "IC50", "setting": "[6]", "result": 3.79, "unit": "nM"}]}]}
